Laboratory results from patent US9351955B2, “Compounds and pharmaceutical compositions thereof for the treatment of cystic fibrosis” (Galapagos NV, priority 2013, dated 2016).

Tests used:
Type in all cases: cell-based
CFTR G551D mutant = molecular target: T1, CFTR G551D mutant (Homo sapiens, UniProt P13569, G551D); assay: YFP-halide influx assay for the CFTR-G551D mutation (HEK293 cells); settings: HEK293 cells expressing CFTR G551D and YFP reporter; forskolin 10.67 μM; read-out: EC50 measured by YFP-halide influx assay for the CFTR-G551D
T1 construct: expressed in transfected cells; host or cells: HEK293 (reverse transfection with plasmids)
In short: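 HEK293 cells reverse-transfected with CFTR G551D and halide-sensitive YFP, expressed 24 h at 37 °C. Iodide-induced fluorescence quench recorded for 7 s after I^− injection; response as 1−F/F0, EC50 from concentration plot.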

CFTR-R117H = molecular target: T2, CFTR-R117H (Homo sapiens, UniProt P13569, R117H); assay: YFP-halide influx assay for the CFTR-R117H; settings: CFTR-R117H mutant; read-out: EC50 measured by YFP-halide influx assay for the CFTR-R117H
T2 construct: expressed in transfected cells
Excerpt: (§1) The YFP halide influx assay measures the functionality of the cystic fibrosis Transmembrane Conductance regulator (CFTR) channels. The assay is used to evaluate the capacity of compounds to increase the channel opening of existing mutant CFTR channels in the membrane. It makes use of the observation that the yellow fluorescent protein (YFP) variant YFP H148Q, I152L, F47L has its fluorescence substantially quenched by halide ions like Cl^− and I^−. (Galietta et al., 2001)
(§2) For this purpose, HEK293-cells are seeded in 96 well plates. During seeding, the cells are reverse-transfected with plasmid vectors that direct the expression of the CFTR G551D mutant and of the YFP reporter. Cells are incubated at 37° C., 5% CO2 for 24 hours so as to allow for sufficient expression of the CFTR protein.
(§3) The I^−-induced quenching of fluorescence is recorded immediately after injection of I^− for 7 seconds. The capacity of a compound to increase the channel opening is directly correlated with the decrease in fluorescence, and is expressed as (1−(fluorescence after 7 seconds (F)/fluorescence before injection (F0))) and an EC50 can be derived from a (1−F/F0) vs compound concentration plot.
(§4) Similar YHA assays were developed for other channel gating defective or channel conductance defective CFTR mutants to determine effect of compound on channel activity. Examples of mutants are G178R, G1349D, S549N, R117H, R334W. This assay is also used for additional class I CFTR mutants, including G542X, W1282X; class II mutants including N1303K, and for class III mutants including S1251N; or wild-type CFTR.

CFTR-G1349D = molecular target: T3, CFTR-G1349D (Homo sapiens, UniProt P13569, G1349D); assay: YFP-halide influx assay for the CFTR-G1349D; settings: CFTR-G1349D mutant; read-out: EC50 measured by YFP-halide influx assay for the CFTR-G1349D
T3 construct: expressed in transfected cells
Excerpt: as §1, §2, §3, §4

CFTR G551D = CFTR G551D (Homo sapiens, UniProt P13569, G551D); assay: TECC assay, FRT cells stably transfected with G551D CFTR; settings: high expression CFTR-G551D cells, several values in a cell = repeat determinations
Experimental: 7.2.3. FRT-CFTR G551D Protocol
For G551D recordings, Fish Rat Thyroid (FRT) cells stably transfected with G551D CFTR (a low CFTR-G551D expressing cell line and a high expressing CFTR-G551D cell line from Rosalind Franklin University of medicine and science, Chicago, Ill.) are plated on Transwell supports (Costar 6.5 mm Diameter, […]). The cells are grown for 8-10 d under liquid-liquid interface conditions prior to electrophysiological readings. For electrophysiological recording, the FRT-G551D cells are mounted in the TECC heating plate for electrophysiological measurement and kept at 37° C. The epithelia are bathed in hepes buffered culturing medium without FBS on both the basolateral and apical sides. Apical amiloride is used to inhibit the endogenous ENaC currents while forkolin is applied on both apical and basolateral side to stimulate CFTR. After forskolin triggering, compounds are added on both sides to test their potential for increasing CFTR gating. Measurements are done during a 10 minute timeframe with recordings every 2 min. The increase in ISC is used as a measure for the increased CFTR activity, EC50 values can be generated by measuring impact of different concentrations of compound on ISC on the cells, for this purpose each transwell is treated with a different compound concentration. Inh-172, an inhibitor specific for CFTR, is used to test the specificity of the tested compounds.
When subjected to this protocol, the following EC50 are measured.

CFTR ΔF508 mutant [1] = molecular target: T4, CFTR ΔF508 mutant (Homo sapiens, UniProt P13569, DEL508-508); assay: YFP-halide influx assay for the CFTR-ΔF508 mutation (384 well, CFBE41o- cells, FDSS/μCell); settings: forskolin 10.67 μM, fluorescence after 36 seconds, read-out: EC50 measured by YFP-halide influx assay for the CFTR-ΔF508
T4 construct: expressed in transfected cells; host or cells: CFBE41o- (adenoviral transduction)
In short: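 CFBE41o- cells were adenovirally transduced with ΔF508 CFTR and the YFP H148Q/I152L reporter. Cells were then held 24 h at 27 °C or treated 24 h at 37 °C with a CFTR modulator. Iodide-induced quench was recorded for 2 min, and EC50 was derived from 1−F/F0 at 36 s against compound concentration.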

CFTR-S549N = molecular target: T5, CFTR-S549N (Homo sapiens, UniProt P13569, S549N); assay: YFP-halide influx assay for the CFTR-S549N; settings: CFTR-S549N mutant; read-out: EC50 measured by YFP-halide influx assay for the CFTR-S549N
T5 construct: expressed in transfected cells
Excerpt: as §1, §2, §3, §4

CFTR-G178R = molecular target: T6, CFTR-G178R (Homo sapiens, UniProt P13569, G178R); assay: YFP-halide influx assay for the CFTR-G178R; settings: read-out: EC50 measured by YFP-halide influx assay for the CFTR-G178R
T6 construct: expressed in transfected cells
Excerpt: as §1, §2, §3, §4

CFTR ΔF508 mutant [2] = molecular target: T4, CFTR ΔF508 mutant; assay: YFP-halide influx assay for the CFTR-ΔF508 mutation (96 well, CFBE41o- cells); settings: compounds of the invention, 96 well, forskolin 10.67 μM, read-out: EC50 measured by YFP-halide influx assay for the CFTR-ΔF508
In short: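 CFBE41o- cells were adenovirally transduced with CFTR ΔF508 and the halide-sensitive YFP H148Q/I152L. They were then corrected either at 27 °C for 24 h or with a CFTR modulator for 24 h at 37 °C. After iodide injection, YFP quenching over 7 s was expressed as 1−F/F0, and EC50 was derived from the concentration–response plot.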

CFTR ΔF508 = molecular target: T7, CFTR ΔF508 (Homo sapiens, UniProt P13569, DEL508-508); assay: TECC assay, primary bronchial epithelial cells from CF patients homozygous for CFTR ΔF508; settings: primary bronchial epithelial cells, CFTR ΔF508; several values in a cell = repeat determinations
T7 construct: host or cells: primary bronchial epithelial cells from CF patients homozygous for ΔF508, pre-treated with VX809
Experimental: 7.2.1. Primary Bronchial Epithelial Cells Protocol
The TECC (Tranepithelial Clamp Circuit, EP-design) assay measures the functionality of the cystic fibrosis Transmembrane Conductance regulator (CFTR) by measuring the short circuit current (ISC) generated over the basolateral and apical membrane of lung epithelial cells. In TECC the transepithelial potential PD and transepithelial resistance (Rt) are measured in an open circuit and transformed to ISC using Ohm's law. 24 wells can be measured simultaneously allowing a higher throughput compared to Ussing chambers.
For this purpose, bronchial epithelial cells isolated from CF patients homozygous for the CFTR ΔF508 mutation (hAEC-CF, Epithelix) are plated on type IV collagen-coated Transwell supports (Costar). Human airway epithelia are generated by provision of an air-liquid interface for 21 days to form well-differentiated polarized cultures that resemble in vivo pseudo-stratified ciliated epithelium (Fulcher et al., 2005). In the case of the homozygous ΔF508 CFTR samples, the differentiated cells are treated with 3 μM VX809 (2626 South Loop West, Suite 225, Houston, Tex. 77054 USA, Cat n#51565) to allow sufficient expression of properly folded CFTR protein on the membrane (48 hours basolateral treatment and 24 hours apical treatment), prior to electrophysiological recordings. […] G551D/ΔF508, differentiated cells are used as such for the recordings.
Information on the compounds can be retrieved on the homozygous ΔF508 CFTR samples looking at increased CFTR activity when compounds are added in an acute mode or in a chronic mode. On G551D/ΔF508 CFTR heterozygous samples compounds are added in an acute mode to the differentiated cells.
For the acute mode, for electrophysiological recording, the human airway epithelia are mounted in the TECC heating plate for electrophysiological measurement and kept at 37° C. The epithelia are bathed in a NaCl-Ringer solution (120 mM NaCl, 25 mM NaHCO3, 1.2 mM CaCl2, 1.2 mM MgCl2, 0.8 mM KH2PO4, 0.8 mM K2HPO4, pH 7.4, 5 mM glucose) on both the basolateral and apical sides. Apical amiloride is used to inhibit the endogenous ENaC currents while forkolin is applied on both apical and basolateral side to stimulate CFTR. After forskolin triggering, compounds are added on both sides to test their potential for increasing CFTR gating. Measurements are done during a 20 minute timeframe with recordings every 2 minutes. The increase in ISC is used as a measure for the increased CFTR activity, EC50 values can be generated by measuring impact of different concentrations of compound on ISC on primary cells, for this purpose each transwell is treated with a different compound concentration. Inh-172, an inhibitor specific for CFTR, is used to test the specificity of the tested compounds.
For the chronic mode, the differentiated cells are treated with 3 μM VX809 (2626 South Loop West, Suite 225, Houston, Tex. 77054 USA, Cat n#51565) and potentiator compounds at different concentrations (48 hours basolateral treatment and 24 hours apical treatment), prior to electrophysiological recordings. For electrophysiological recording, the human airway epithelia are mounted in the TECC heating plate for electrophysiological measurement and kept at 37° C. […]

T4 sequence (P13569 with tags, fused parts or gaps DEL508-508): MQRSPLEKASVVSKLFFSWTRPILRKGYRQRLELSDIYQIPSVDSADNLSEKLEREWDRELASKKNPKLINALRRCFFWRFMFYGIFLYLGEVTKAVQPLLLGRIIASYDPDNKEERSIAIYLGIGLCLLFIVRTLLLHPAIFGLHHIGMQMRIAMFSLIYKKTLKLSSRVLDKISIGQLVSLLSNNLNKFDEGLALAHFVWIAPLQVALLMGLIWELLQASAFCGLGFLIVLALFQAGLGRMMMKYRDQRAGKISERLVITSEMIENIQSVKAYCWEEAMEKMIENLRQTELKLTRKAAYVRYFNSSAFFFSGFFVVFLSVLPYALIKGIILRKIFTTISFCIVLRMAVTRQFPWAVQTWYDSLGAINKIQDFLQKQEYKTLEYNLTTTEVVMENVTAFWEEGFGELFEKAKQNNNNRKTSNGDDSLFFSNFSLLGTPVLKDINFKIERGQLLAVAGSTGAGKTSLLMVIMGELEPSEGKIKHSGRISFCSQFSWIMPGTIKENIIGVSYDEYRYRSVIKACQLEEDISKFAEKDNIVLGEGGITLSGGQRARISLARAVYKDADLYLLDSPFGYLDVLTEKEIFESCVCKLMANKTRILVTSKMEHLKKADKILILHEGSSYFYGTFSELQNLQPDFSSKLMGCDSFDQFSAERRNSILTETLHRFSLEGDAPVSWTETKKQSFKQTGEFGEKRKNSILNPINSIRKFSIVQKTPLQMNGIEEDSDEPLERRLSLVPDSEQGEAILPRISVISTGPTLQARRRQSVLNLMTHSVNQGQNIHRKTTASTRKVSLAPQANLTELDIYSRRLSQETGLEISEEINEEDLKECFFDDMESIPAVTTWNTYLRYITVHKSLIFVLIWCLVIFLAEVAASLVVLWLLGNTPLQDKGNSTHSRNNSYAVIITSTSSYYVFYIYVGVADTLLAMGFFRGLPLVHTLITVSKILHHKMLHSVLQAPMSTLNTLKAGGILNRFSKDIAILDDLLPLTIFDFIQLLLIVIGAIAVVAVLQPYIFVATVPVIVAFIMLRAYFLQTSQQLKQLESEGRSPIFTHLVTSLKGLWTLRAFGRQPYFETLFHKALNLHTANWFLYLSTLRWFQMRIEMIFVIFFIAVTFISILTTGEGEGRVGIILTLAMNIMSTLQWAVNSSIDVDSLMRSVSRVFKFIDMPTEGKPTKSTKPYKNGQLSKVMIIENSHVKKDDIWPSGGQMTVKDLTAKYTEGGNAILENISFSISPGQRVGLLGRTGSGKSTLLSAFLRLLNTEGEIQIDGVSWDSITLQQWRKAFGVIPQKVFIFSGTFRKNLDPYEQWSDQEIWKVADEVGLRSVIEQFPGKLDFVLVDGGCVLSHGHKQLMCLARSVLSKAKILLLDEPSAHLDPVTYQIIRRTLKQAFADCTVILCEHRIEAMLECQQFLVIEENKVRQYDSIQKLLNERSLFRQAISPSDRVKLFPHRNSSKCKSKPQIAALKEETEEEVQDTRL
T3 sequence (P13569 whole entry G1349D): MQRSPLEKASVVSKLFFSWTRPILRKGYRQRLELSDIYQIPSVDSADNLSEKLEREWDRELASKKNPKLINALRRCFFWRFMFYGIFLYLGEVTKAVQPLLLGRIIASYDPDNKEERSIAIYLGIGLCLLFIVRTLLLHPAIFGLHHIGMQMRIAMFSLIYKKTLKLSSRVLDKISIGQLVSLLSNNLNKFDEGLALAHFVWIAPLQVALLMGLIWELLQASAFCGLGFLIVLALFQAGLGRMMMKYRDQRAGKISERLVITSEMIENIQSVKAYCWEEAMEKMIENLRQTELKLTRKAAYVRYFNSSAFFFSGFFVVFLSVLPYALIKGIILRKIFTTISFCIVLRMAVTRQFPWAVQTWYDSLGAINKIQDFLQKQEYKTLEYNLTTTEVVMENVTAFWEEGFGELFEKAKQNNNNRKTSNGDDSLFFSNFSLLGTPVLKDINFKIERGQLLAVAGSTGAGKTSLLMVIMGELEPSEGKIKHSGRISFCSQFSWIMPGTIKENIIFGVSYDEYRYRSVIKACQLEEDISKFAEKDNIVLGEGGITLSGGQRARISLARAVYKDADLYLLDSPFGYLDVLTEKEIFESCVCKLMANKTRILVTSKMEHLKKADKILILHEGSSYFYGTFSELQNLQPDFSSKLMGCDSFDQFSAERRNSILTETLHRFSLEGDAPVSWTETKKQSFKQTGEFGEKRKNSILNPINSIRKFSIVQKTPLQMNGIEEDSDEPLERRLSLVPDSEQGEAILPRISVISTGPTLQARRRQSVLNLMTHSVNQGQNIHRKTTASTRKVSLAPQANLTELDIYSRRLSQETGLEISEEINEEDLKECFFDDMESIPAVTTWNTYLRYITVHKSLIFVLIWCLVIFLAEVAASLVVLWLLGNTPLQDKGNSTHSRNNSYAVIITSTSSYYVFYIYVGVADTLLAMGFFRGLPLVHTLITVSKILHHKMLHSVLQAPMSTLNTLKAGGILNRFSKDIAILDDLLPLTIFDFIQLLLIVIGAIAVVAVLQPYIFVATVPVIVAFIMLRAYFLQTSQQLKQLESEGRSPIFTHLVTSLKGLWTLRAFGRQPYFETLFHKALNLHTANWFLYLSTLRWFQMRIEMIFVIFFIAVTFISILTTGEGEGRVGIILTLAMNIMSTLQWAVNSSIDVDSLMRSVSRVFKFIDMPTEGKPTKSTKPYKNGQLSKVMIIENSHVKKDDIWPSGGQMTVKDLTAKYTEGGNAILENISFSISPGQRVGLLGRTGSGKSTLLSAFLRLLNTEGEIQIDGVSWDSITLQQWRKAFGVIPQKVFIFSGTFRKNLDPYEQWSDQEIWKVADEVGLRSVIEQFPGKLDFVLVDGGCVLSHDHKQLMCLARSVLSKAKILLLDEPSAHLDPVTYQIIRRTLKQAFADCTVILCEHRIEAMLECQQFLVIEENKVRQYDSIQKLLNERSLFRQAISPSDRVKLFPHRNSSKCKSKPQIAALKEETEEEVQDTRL
T5 sequence (P13569 whole entry S549N): as the sequence (P13569 whole entry G1349D) above, with S549N, D1349G counted along it
CFTR G551D, sequence (P13569 whole entry G551D): as the sequence (P13569 whole entry G1349D) above, with G551D, D1349G counted along it
T1 sequence (P13569 whole entry G551D): as the sequence (P13569 whole entry G1349D) above, with G551D, D1349G counted along it
T2 sequence (P13569 whole entry R117H): as the sequence (P13569 whole entry G1349D) above, with R117H, D1349G counted along it
T6 sequence (P13569 whole entry G178R): as the sequence (P13569 whole entry G1349D) above, with G178R, D1349G counted along it
T7 sequence (P13569 with tags, fused parts or gaps DEL508-508): as the sequence (P13569 with tags, fused parts or gaps DEL508-508) above

| Structure (SMILES) | EC50 (CFTR G551D mutant) [nM] | EC50 (CFTR-R117H) [nM] | EC50 (CFTR-G1349D) [nM] | EC50 (CFTR G551D) [nM] | EC50 (CFTR ΔF508 mutant [1]) [nM] | EC50 (CFTR-S549N) [nM] | EC50 (CFTR-G178R) [nM] | EC50 (CFTR ΔF508 mutant [2]) [nM] | EC50 (CFTR ΔF508) [nM] |
| --- | --- | --- | --- | --- | --- | --- | --- | --- | --- |
| CC(C)(C)CC(O)C(=O)Nc1sc2c(c1C(N)=O)CC(C)(C)OC2(C)C (single isomer, unassigned) [Compound 110, 2-[[2-hydroxy-4,4-dimethyl-pentanoyl]amino]-5,5,7,7-tetramethyl-4H-thieno[2,3-c]pyran-3-carboxamide] | 209 | 49.9 | 142 | 193 | 0.66 | 261 | 22.5 | – | – |
| Cc1[nH]nc(C(=O)Nc2sc3c(c2C(N)=O)CC(C)(C)OC3(C)C)c1Cl [Compound 34, N-(3-carbamoyl-5,5,7,7-tetramethyl-5,7-dihydro-4H-thieno[2,3-c]pyran-2-yl)-4-chloro-5-methyl-1H-pyrazole-3-carboxamide] | 270 | 301 | 47.4 | – | 10.1 | 444 | 42.2 | 10 | – |
| Cc1cn[nH]c1C(=O)Nc1sc2c(c1C(N)=O)CC(C)(C)OC2(C)C [Compound 35, N-(3-carbamoyl-5,5,7,7-tetramethyl-5,7-dihydro-4H-thieno[2,3-c]pyran-2-yl)-4-methyl-1H-pyrazole-3-carboxamide] | 183 | 180 | 118 | 43.7 | 2.44 | 120 | 44.1 | 3 | – |
| COCc1c[nH]nc1C(=O)Nc1sc2c(c1C(N)=O)CC(C)(C)OC2(C)C [Compound 105, N-(3-carbamoyl-5,5,7,7-tetramethyl-4H-thieno[2,3-c]pyran-2-yl)-4-(methoxymethyl)-1H-pyrazole-3-carboxamide] | 730 | 435 | 120 | – | 6.67 | 293 | 54.4 | – | 54.4 |

Results, then the compound that gave them:

| EC50 (CFTR G551D mutant) [nM] | EC50 (CFTR-R117H) [nM] | EC50 (CFTR-G1349D) [nM] | EC50 (CFTR G551D) [nM] | EC50 (CFTR ΔF508 mutant [1]) [nM] | EC50 (CFTR-S549N) [nM] | EC50 (CFTR-G178R) [nM] | EC50 (CFTR ΔF508 mutant [2]) [nM] | EC50 (CFTR ΔF508) [nM] | Structure (SMILES) |
| --- | --- | --- | --- | --- | --- | --- | --- | --- | --- |
| 2530 | 807 | 1190 | 62500 | 81.5 | 2610 | 786 | – | – | CC1(C)Cc2c(sc(NC(=O)c3cnco3)c2C(N)=O)C(C)(C)O1 [Compound 136, N-(3-carbamoyl-5,5,7,7-tetramethyl-4H-thieno[2,3-c]pyran-2-yl)oxazole-5-carboxamide] |
| – | 1580 | 3330 | – | 62.5 | 2370 | 3330 | – | 502 | CC1(C)Cc2c(sc(NC(=O)C3(O)CCOCC3)c2C(N)=O)C(C)(C)O1 [Compound 154, 2-[(4-hydroxytetrahydropyran-4-carbonyl)amino]-5,5,7,7-tetramethyl-4H-thieno[2,3-c]pyran-3-carboxamide] |
